Experimental data reported in US10173991B2, “Sulfone amide linked benzothiazole inhibitors of endothelial lipase” (BRISTOL-MYERS SQUIBB COMPANY, priority 2014, dated 2019).
pIC50: −log10 of the molar value. Where two headings read alike, the source gives them in different places.

Target: Endothelial lipase (EL) (Homo sapiens (Human), UniProt Q9Y5X9)
Test: Endothelial lipase (EL) enzymatic assay with fluorescent substrate A10070 in DMPG vesicles
Type: biochemical
Method in brief: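 EL from conditioned medium of HT-1080 cells engineered to overexpress endogenous EL; HL partially purified from conditioned medium of HL-overexpressing COS cells. Enzyme preincubated with compound 30 min at 37° C in 50 mM HEPES pH 8.0, 50 mM NaCl, 1 mM CaCl2; DMPG vesicles carrying FRET substrate (0.11 mole fraction) then added.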

[1] = EL from conditioned media of HT-1080 cells, 30 min preincubation at 37° C.

Chain of Endothelial lipase (EL) (Q9Y5X9 21-500): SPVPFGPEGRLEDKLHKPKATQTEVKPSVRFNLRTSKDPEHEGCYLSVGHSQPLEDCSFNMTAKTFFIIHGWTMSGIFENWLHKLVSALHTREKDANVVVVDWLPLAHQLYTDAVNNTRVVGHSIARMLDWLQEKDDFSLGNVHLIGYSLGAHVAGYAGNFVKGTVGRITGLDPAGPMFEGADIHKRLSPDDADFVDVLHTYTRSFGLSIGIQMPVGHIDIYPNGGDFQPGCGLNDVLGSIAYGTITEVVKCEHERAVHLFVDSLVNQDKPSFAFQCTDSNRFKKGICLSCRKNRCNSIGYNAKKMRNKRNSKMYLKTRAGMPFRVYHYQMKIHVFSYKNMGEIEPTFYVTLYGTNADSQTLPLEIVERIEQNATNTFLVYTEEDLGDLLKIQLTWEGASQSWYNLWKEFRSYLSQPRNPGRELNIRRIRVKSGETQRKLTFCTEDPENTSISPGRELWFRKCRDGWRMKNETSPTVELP

| SMILES | pIC50 | pIC50 [1] |
| --- | --- | --- |
| CS(=O)(=O)C(C(=O)NCC(=O)NC1CC1)c1nc2cc(F)c(-c3ccc(-n4ccnc4)cc3)cc2s1 (stereo not drawn) [Example 579, N-[(Cyclopropylcarbamoyl)methyl]-2-{5-fluoro-6-[4-(1H-imidazol-1-yl)phenyl]-1,3-benzothiazol-2-yl}-2-methanesulfonylacetamide] |  | 8.22 |
| COCCS(=O)(=O)C(C(=O)NCC(=O)NC1CC1)c1nc2cc(F)c(-c3ccc(-n4ccnc4)cc3)cc2s1 (stereo not drawn) [Example 581, N-[(cyclopropyl-carbamoyl)methyl]-2-{5-fluoro-6-[4-(1H-imidazol-1-yl)phenyl]-1,3-benzothiazol-2-yl}-2-(2-methoxyethane-sulfonyl)acetamide] | 7.44 |  |
| CS(=O)(=O)C(C(=O)NCC(=O)NC1CC1)c1nc2ccc(-c3ccc(=O)n(-c4ccccc4)c3)cc2s1 (stereo not drawn) [Example 583, N-[(cyclopropyl-carbamoyl)methyl]-2-methanesulfonyl-2-[6-(6-oxo-1-phenyl-1,6-dihydropyridin-3-yl)-1,3-benzothiazol-2-yl]acetamide] | 7.70 |  |
| O=C(CNC(=O)C(c1nc2cc(F)c(-c3cnc(-n4cccn4)nc3)cc2s1)S(=O)(=O)CCC(F)(F)F)NC1CC1 (stereo not drawn) [Example 584, N-[(cyclopropyl-carbamoyl)methyl]-2-{5-fluoro-6-[2-(1H-pyrazol-1-yl)pyrimidin-5-yl]-1,3-benzothiazol-2-yl}-2-(3,3,3-trifluoropropane-sulfonyl)acetamide] | 7.19 |  |
| O=C(CNC(=O)C(c1nc2cc(F)c(-c3cccn(Cc4ccccc4)c3=O)cc2s1)S(=O)(=O)CCC(F)(F)F)NC1CC1 (stereo not drawn) [Example 591, 2-[6-(1-Benzyl-2-oxo-1,2-dihydropyridin-3-yl)-5-fluoro-1,3-benzothiazol-2-yl]-N-[(cyclopropylcarbamoyl)methyl]-2-(3,3,3-trifluoropropanesulfonyl)acetamide] |  | 6.57 |
| COCCS(=O)(=O)C(C(=O)NCC(=O)NC1CC1)c1nc2cc(F)c(-c3ccc(-c4nnnn4C)cc3)cc2s1 (stereo not drawn) [Example 594, N-[(cyclopropyl-carbamoyl)methyl]-2-{5-fluoro-6-[4-(1-methyl-1H-1,2,3,4-tetrazol-5-yl)phenyl]-1,3-benzothiazol-2-yl}-2-(2-methoxyethane-sulfonyl)acetamide] | 7.17 |  |
| COCCNC(=O)CNC(=O)C(c1nc2ccc(-c3ccc4c(c3)CN(C3CC3)C4=O)cc2s1)S(=O)(=O)c1ccc(F)cc1 (stereo not drawn) [Example 595, 2-(6-(2-Cyclopropyl-1-oxoisoindolin-5-yl)benzo[d]thiazol-2-yl)-2-((4-fluorophenyl)sulfonyl)-N-(2-((2-methoxyethyl)amino)-2-oxoethyl)] |  | 7.62 |
| COCCS(=O)(=O)C(C(=O)NCC(=O)NC1CC1)c1nc2ccc(-c3ccnc(O)c3F)cc2s1 (stereo not drawn) [Example 598, N-(2-(Cyclopropylamino)-2-oxoethyl)-2-(6-(3-fluoro-2-hydroxypyridin-4-yl)benzo[d]thiazol-2-yl)-2-((2-methoxyethyl)sulfonyl)acetamide] |  | 7.00 |
| O=C(CNC(=O)C(c1nc2ccc(-c3ccnc(O)c3)cc2s1)S(=O)(=O)c1ccc(F)cc1)NC1CC1 (stereo not drawn) [Example 599, N-[(cyclopropyl-carbamoyl)methyl]-2-(4-fluorobenzene-sulfonyl)-2-[6-(2-hydroxypyridin-4-yl)-1,3-benzothiazol-2-yl]acetamide] | 7.57 |  |
| Cc1ncc(-c2cc3sc(C(C(=O)NCC(=O)NC4CC4)S(C)(=O)=O)nc3cc2OC(F)F)cn1 (stereo not drawn) [Example 601, N-[(Cyclopropylcarbamoyl)methyl]-2-[5-(difluoromethoxy)-6-(2-methylpyrimidin-5-yl)-1,3-benzothiazol-2-yl]-2-methanesulfonylacetamide] |  | 7.72 |
| Cc1cc(-c2cc3sc(C(C(=O)NCC(=O)NC4CC4)S(C)(=O)=O)nc3cc2OC(F)F)cnn1 (stereo not drawn) [Example 604, N-[(cyclopropyl-carbamoyl)methyl]-2-[5-(difluoromethoxy)-6-(6-methylpyridazin-4-yl)-1,3-benzothiazol-2-yl]-2-methanesulfonyl-acetamide] | 7.57 |  |
| CS(=O)(=O)C(C(=O)NCC(=O)NC1CC1)c1nc2ccc(-c3ccccc3)cc2s1 (stereo not drawn) [Example 608, N-[(cyclopropyl-carbamoyl)methyl]-2-methanesulfonyl-2-(6-phenyl-1,3-benzothiazol-2-yl)acetamide] | 6.82 |  |

Further lines, results first:

| pIC50 | pIC50 [1] | SMILES |
| --- | --- | --- |
| 8.40 |  | CC(C)S(=O)(=O)C(C(=O)NCC(=O)NC1CC1)c1nc2cc(F)c(-c3ccc(NC(=O)CCc4ccccc4)cc3)cc2s1 (stereo not drawn) [Example 578, N-{4-[2-({[(cyclopropyl-carbamoyl)methyl]carbamoyl} (propane-2-sulfonyl)methyl)-5-fluoro-1,3-benzothiazol-6-yl]phenyl}-3-phenyl-propanamide] |
| 7.92 |  | CS(=O)(=O)C(C(=O)NCC(=O)NC1CC1)c1nc2ccc(-c3ccc(-n4ccnc4)cc3)cc2s1 (stereo not drawn) [Example 580, N-[(cyclopropyl-carbamoyl)methyl]-2-{6-[4-(1H-imidazol-1-yl)phenyl]-1,3-benzothiazol-2-yl}-2-methanesulfonyl-acetamide] |
| 9.00 |  | COCCS(=O)(=O)C(C(=O)NCC(=O)NC1CC1)c1nc2cc(F)c(-c3ccc(-n4ncc(C#N)c4N)cc3)cc2s1 (stereo not drawn) [Example 585, 2-{6-[4-(5-amino-4-cyano-1H-pyrazol-1-yl)phenyl]-5-fluoro-1,3-benzothiazol-2-yl}-N-[(cyclopropyl-carbamoyl)methyl]-2-(2-methoxyethane-sulfonyl)acetamide] |
| 9.00 |  | COCCS(=O)(=O)C(C(=O)NCC(=O)NC1CC1)c1nc2cc(F)c(-c3ccc(-n4ncc(C(N)=O)c4N)cc3)cc2s1 (stereo not drawn) [Example 586, 5-amino-1-{4-[2-({[(cyclopropyl-carbamoyl)methyl]carbamoyl}(2-methoxyethane-sulfonyl)methyl)-5-fluoro-1,3-benzothiazol-6-yl]phenyl}-1H-pyrazole-4-carboxamide] |
| 8.52 |  | Cc1nn(-c2ccc(-c3cc4sc(C(C(=O)NCC(=O)NC5CC5)S(=O)(=O)CCC(F)(F)F)nc4cc3F)cc2)c(N)c1C#N (stereo not drawn) [Example 587, 2-{6-[4-(5-amino-4-cyano-3-methyl-1H-pyrazol-1-yl)phenyl]-5-fluoro-1,3-benzothiazol-2-yl}-N-[(cyclopropyl-carbamoyl)methyl]-2-(3,3,3-trifluoropropane-sulfonyl)acetamide] |
| 8.22 |  | O=C(CNC(=O)C(c1nc2cc(F)c(-c3ccc(-n4nc(C(F)(F)F)cc4C(=O)O)cc3)cc2s1)S(=O)(=O)CCC(F)(F)F)NC1CC1 (stereo not drawn) [Example 588, 1-{4-[2-({[(cyclopropyl-carbamoyl)methyl]carbamoyl}(3,3,3-trifluoropropane-sulfonyl)methyl)-5-fluoro-1,3-benzothiazol-6-yl]phenyl}-3-(trifluoromethyl)-1H-pyrazole-5-carboxylic acid] |
| 8.10 |  | O=C(CNC(=O)C(c1nc2cc(F)c(-c3ccc4c(c3)CCCN4C(=O)Cc3c(F)cccc3F)cc2s1)S(=O)(=O)CCC(F)(F)F)NC1CC1 (stereo not drawn) [Example 590, N-[(cyclopropyl-carbamoyl)methyl]-2-(6-{1-[2-(2,6-difluorophenyl)acetyl]-1,2,3,4-tetrahydroquinolin-6-yl}-5-fluoro-1,3-benzothiazol-2-yl)-2-(3,3,3-trifluoropropane-sulfonyl)acetamide] |
| 8.30 |  | O=C(CNC(=O)C(c1nc2cc(F)c(-c3ccc(=O)n(Cc4ccccc4)c3)cc2s1)S(=O)(=O)CCC(F)(F)F)NC1CC1 (stereo not drawn) [Example 592, 2-[6-(1-benzyl-6-oxo-1,6-dihydropyridin-3-yl)-5-fluoro-1,3-benzothiazol-2-yl]-N-[(cyclopropyl-carbamoyl)methyl]-2-(3,3,3-trifluoropropane-sulfonyl)acetamide] |
| 8.05 |  | COCCS(=O)(=O)C(C(=O)NCC(=O)NC1CC1)c1nc2cc(F)c(-c3ccc(-c4nnn(C)n4)cc3)cc2s1 (stereo not drawn) [Example 593, N-[(cyclopropyl-carbamoyl)methyl]-2-{5-fluoro-6-[4-(2-methyl-2H-1,2,3,4-tetrazol-5-yl)phenyl]-1,3-benzothiazol-2-yl}-2-(2-methoxyethane-sulfonyl)acetamide] |
| 8.15 |  | O=C(CNC(=O)C(c1nc2ccc(-c3ccc4c(c3)CN(C3CC3)C4=O)cc2s1)S(=O)(=O)c1ccc(F)cc1)NC1CC1 (stereo not drawn) [Example 597, 2-[6-(2-cyclopropyl-1-oxo-2,3-dihydro-1H-isoindol-5-yl)-1,3-benzothiazol-2-yl]-N-[(cyclopropyl-carbamoyl)methyl]-2-(4-fluorobenzene-sulfonyl)acetamide] |
| 7.85 |  | COCCS(=O)(=O)C(C(=O)NCC(=O)NC1CC1)c1nc2ccc(-c3ccnc(O)c3)cc2s1 (stereo not drawn) [Example 600, N-[(cyclopropyl-carbamoyl)methyl]-2-[6-(2-hydroxypyridin-4-yl)-1,3-benzothiazol-2-yl]-2-(2-methoxyethane-sulfonyl)acetamide] |
| 7.74 |  | CS(=O)(=O)C(C(=O)NCC(=O)NC1CC1)c1nc2cc(OC(F)F)c(-c3ccc(F)nc3)cc2s1 (stereo not drawn) [Example 602, N-[(cyclopropyl-carbamoyl)methyl]-2-[5-(difluoromethoxy)-6-(6-fluoropyridin-3-yl)-1,3-benzothiazol-2-yl]-2-methanesulfonyl-acetamide] |
| 8.52 |  | CS(=O)(=O)C(C(=O)NCC(=O)NC1CC1)c1nc2cc(OC(F)F)c(-c3cccc(-n4cccn4)c3)cc2s1 (stereo not drawn) [Example 605, N-[(cyclopropyl-carbamoyl)methyl]-2-[5-(difluoromethoxy)-6-[3-(1H-pyrazol-1-yl)phenyl]-1,3-benzothiazol-2-yl]-2-methanesulfonyl-acetamide] |
| 8.40 |  | CC(C)n1cc(-c2cc3sc(C(C(=O)NCC(=O)NC4CC4)S(C)(=O)=O)nc3cc2OC(F)F)ccc1=O (stereo not drawn) [Example 606] |
| 8.30 |  | COC(=O)Nc1ccc(-c2cc3sc(C(C(=O)NCC(=O)NC4CC4)S(C)(=O)=O)nc3cc2OC(F)F)cc1 (stereo not drawn) [Example 607, methyl N-{4-[2-({[(cyclopropyl-carbamoyl)methyl]carbamoyl} (methanesulfonyl)methyl)-5-(difluoromethoxy)-1,3-benzothiazol-6-yl]phenyl} carbamate] |
